Results published in US20190031717A1, “MULTI-FUNCTIONAL FUSION POLYPEPTIDE, PREPARATION METHOD THEREOF, AND APPLICATION OF SAME” (NANJING ANJI BIOLOGICAL TECHNOLOGY CO., LTD, priority 2016, published 2019).

Key:
Staphylococcal fluid = test: Mouse pneumonia model, bacterial; format: in vivo, BALB/C mice; set-up: concentration or dose not given beside the values; conditions: mean ± SD
Protocol: (§1) The mouse pneumonia model was successfully established by the nose-drop method. To build the mouse pneumonia model, BALB/C mice with a body mass of 16-22 g were selected and anesthetized pneumonia chain was prepared after anesthesia with ether on day 0, day 1, and day 2. Staphylococcal fluid, adenovirus concentrate, Mycoplasma pneumoniae, Chlamydia pneumoniae, protozoa, and pneumonia fungi were slowly dripped into the nasal cavity of the mice, so that they enter the tracheobronchial. During the operation process, care was exercised to prevent bacterial fluid from flowing into the esophagus, which leads to inactivation the bacterial fluid. After successful model establishment, the polypeptides of the present invention were administered, and the results were shown in Table 5. […] The results were expressed in average value±standard deviation.

adenovirus concentrate = test: Mouse pneumonia model, viral; format: in vivo, BALB/C mice; conditions: mean ± SD
Protocol: as §1

Mycoplasma pneumoniae = test: Mouse pneumonia model, mycoplasma; format: in vivo, BALB/C mice; set-up: concentration or dose not given beside the values; conditions: mean ± SD
Protocol: as §1

Chlamydia pneumoniae = test: Mouse pneumonia model, chlamydia; format: in vivo, BALB/C mice; set-up: concentration or dose not given beside the values; conditions: mean ± SD
Protocol: as §1

[1] = test system: Pneumonia caused by lung infection; test: Mouse pneumonia model, pneumonia caused by lung infection; format: in vivo, BALB/C mice; set-up: concentration or dose not given beside the values; conditions: mean ± SD
Protocol: as §1

Bladder Cancer = test: MTT assay, tumor cells; format: cell-based, human; set-up: concentration or dose not given beside the values; conditions: 48 hours, mean ± SD
Protocol: (§2) A variety of human tumor cells were cultured in a 37° C., 5% (volume fraction) CO2 incubator to a density of 90% or more, collected by trypsinization, resuspended in a culture medium and counted under a microscope, and the cells were harvested. The concentration was adjusted to 2.0×10^4 cells/mL, the cell suspension was inoculated into a 96-well plate at 100 μL per well and cultured overnight at 37° C. in a 5% (volume fraction) CO2 incubator. After the cells were completely adhered, the polypeptides of the present invention were added as drug-administered groups, and a culture solution containing no drug was used as a blank control group, and the culture solution was diluted to each predetermined concentration. Each dilution was separately added to a 96-well plate at 100 μL per well and incubated for 48 hours at 37° C. in a 5% (volume fraction) CO2 incubator. 20 μL of 5 mg/mL MTT was added to each well of a 96-well plate and incubation was continued for 4 h. The medium was aspirated and dissolved in 100 μL of DMSO per well. The absorbance was measured with a microplate reader at a detection wavelength of 570 nm and a reference wavelength of 630 nm, and the growth inhibition rate was calculated as follows: tumor growth inhibition rate (%)=(1−absorbance value of the administered group/unadministered group absorbance value)×100%, and the experiment was repeated 3 times independently. The results obtained from the test were expressed as mean±standard deviation, and the tumor growth inhibition rate of the unadministered group was 0. The results in Table 7 indicate that the polypeptides of the present invention have a significant inhibitory effect on the growth of various tumors (FIG. 6).

Brain tumor = test: MTT assay, tumor cells; format: cell-based, human; set-up: concentration or dose not given beside the values; conditions: 48 hours, mean ± SD
Protocol: as §2

Breast cancer = test: MTT assay, tumor cells; format: cell-based, human; set-up: concentration or dose not given beside the values; conditions: 48 hours, mean ± SD
Protocol: as §2

Cervical cancer = test: MTT assay, tumor cells; format: cell-based, human; set-up: concentration or dose not given beside the values; conditions: 48 hours, mean ± SD
Protocol: as §2

Colorectal cancer = test: MTT assay, tumor cells; format: cell-based, human; set-up: concentration or dose not given beside the values; conditions: 48 hours, mean ± SD
Protocol: as §2

Esophageal cancer = test: MTT assay, tumor cells; format: cell-based, human; set-up: concentration or dose not given beside the values; conditions: 48 hours, mean ± SD
Protocol: as §2

Gastric cancer = test: MTT assay, tumor cells; format: cell-based, human; set-up: concentration or dose not given beside the values; conditions: 48 hours, mean ± SD
Protocol: as §2

Head and neck cancer = test: MTT assay, tumor cells; format: cell-based, human; set-up: concentration or dose not given beside the values; conditions: 48 hours, mean ± SD
Protocol: as §2

Hemangioma = test: MTT assay, tumor cells; format: cell-based, human; set-up: concentration or dose not given beside the values; conditions: 48 hours, mean ± SD
Protocol: as §2

Kidney cancer = test: MTT assay, tumor cells; format: cell-based, human; set-up: concentration or dose not given beside the values; conditions: 48 hours, mean ± SD
Protocol: as §2

Liver cancer = test: MTT assay, tumor cells; format: cell-based, human; set-up: concentration or dose not given beside the values; conditions: 48 hours, mean ± SD
Protocol: as §2

Melanoma = test: MTT assay, tumor cells; format: cell-based, human; set-up: concentration or dose not given beside the values; conditions: 48 hours, mean ± SD
Protocol: as §2

Ovarian cancer = test: MTT assay, tumor cells; format: cell-based, human; set-up: concentration or dose not given beside the values; conditions: 48 hours, mean ± SD
Protocol: as §2

Pancreatic cancer = test: MTT assay, tumor cells; format: cell-based, human; set-up: concentration or dose not given beside the values; conditions: 48 hours, mean ± SD
Protocol: as §2

Prostate cancer = test: MTT assay, tumor cells; format: cell-based, human; set-up: concentration or dose not given beside the values; conditions: 48 hours, mean ± SD
Protocol: as §2

Thyroid cancer = test: MTT assay, tumor cells; format: cell-based, human; set-up: concentration or dose not given beside the values; conditions: 48 hours, mean ± SD
Protocol: as §2

Uterine cancer = test: MTT assay, tumor cells; format: cell-based, human; set-up: concentration or dose not given beside the values; conditions: 48 hours, mean ± SD
Protocol: as §2

sarcoma = test: MTT assay, tumor cells; format: cell-based, human; set-up: concentration or dose not given beside the values; conditions: 48 hours, mean ± SD
Protocol: as §2

## Arg-Gly-Asp-Gly-Gly-Gly-Gly-Pro-(D-Pyr)-(D-Cys)-Bip-Arg-Gly-Glu-Gly-Gly-Gly-Gly-Ile-Val-Arg-Arg-Ala-Asp-Arg-Ala-Ala-Val-Pro [Polypeptide III]
Staphylococcal fluid
  Inhibitory Effects on Various Pulmonary Infections: 47.07 ± 13.26%
Adenovirus concentrate
  Inhibitory Effects on Various Pulmonary Infections: 62.17 ± 17.51%
Mycoplasma pneumoniae
  Inhibitory Effects on Various Pulmonary Infections: 42.44 ± 11.96%
Chlamydia pneumoniae
  Inhibitory Effects on Various Pulmonary Infections: 49.88 ± 14.05%
[1]
  Inhibitory Effects on Various Pulmonary Infections: 55.08 ± 15.52%
Bladder Cancer
  tumor growth inhibition rate, MTT Assay: 58.81 ± 12.90%
Brain tumor
  tumor growth inhibition rate, MTT Assay: 77.52 ± 17.00%
Breast cancer
  tumor growth inhibition rate, MTT Assay: 90.11 ± 22.76%
Cervical cancer
  tumor growth inhibition rate, MTT Assay: 68.52 ± 26.72%
Colorectal cancer
  tumor growth inhibition rate, MTT Assay: 96.60 ± 21.18%
Esophageal cancer
  tumor growth inhibition rate, MTT Assay: 74.58 ± 16.36%
Gastric cancer
  tumor growth inhibition rate, MTT Assay: 73.58 ± 20.14%
Head and neck cancer
  tumor growth inhibition rate, MTT Assay: 55.05 ± 12.07%
Hemangioma
  tumor growth inhibition rate, MTT Assay: 85.21 ± 25.36%
Kidney cancer
  tumor growth inhibition rate, MTT Assay: 67.94 ± 18.90%
Liver cancer
  tumor growth inhibition rate, MTT Assay: 82.66 ± 18.13%
Melanoma
  tumor growth inhibition rate, MTT Assay: 64.46 ± 14.14%
Ovarian cancer
  tumor growth inhibition rate, MTT Assay: 75.87 ± 22.58%
Pancreatic cancer
  tumor growth inhibition rate, MTT Assay: 66.99 ± 22.30%
Prostate cancer
  tumor growth inhibition rate, MTT Assay: 73.54 ± 24.09%
Thyroid cancer
  tumor growth inhibition rate, MTT Assay: 70.99 ± 15.57%
Uterine cancer
  tumor growth inhibition rate, MTT Assay: 70.93 ± 23.38%
sarcoma
  tumor growth inhibition rate, MTT Assay: 74.75 ± 16.39%

## Ile-Val-Arg-Arg-Ala-Asp-Arg-Ala-Ala-Val-Pro-Gly-Gly-Gly-Gly-Arg-Gly-Asp-Gly-Gly-Gly-Gly-Pro-(D-Pyr)-(D-Cys)-Bip-Arg-Gly-Glu [Polypeptide V]
Staphylococcal fluid
  Inhibitory Effects on Various Pulmonary Infections: 38.12 ± 11.17%
Adenovirus concentrate
  Inhibitory Effects on Various Pulmonary Infections: 50.35 ± 15.73%
Mycoplasma pneumoniae
  Inhibitory Effects on Various Pulmonary Infections: 34.37 ± 14.40%
Chlamydia pneumoniae
  Inhibitory Effects on Various Pulmonary Infections: 40.40 ± 15.13%
[1]
  Inhibitory Effects on Various Pulmonary Infections: 44.61 ± 18.63%
Bladder Cancer
  tumor growth inhibition rate, MTT Assay: 44.49 ± 11.93%
Brain tumor
  tumor growth inhibition rate, MTT Assay: 58.65 ± 15.73%
Breast cancer
  tumor growth inhibition rate, MTT Assay: 78.51 ± 21.05%
Cervical cancer
  tumor growth inhibition rate, MTT Assay: 64.58 ± 24.72%
Colorectal cancer
  tumor growth inhibition rate, MTT Assay: 73.08 ± 19.60%
Esophageal cancer
  tumor growth inhibition rate, MTT Assay: 56.43 ± 15.13%
Gastric cancer
  tumor growth inhibition rate, MTT Assay: 55.67 ± 18.63%
Head and neck cancer
  tumor growth inhibition rate, MTT Assay: 41.65 ± 11.17%
Hemangioma
  tumor growth inhibition rate, MTT Assay: 87.49 ± 23.46%
Kidney cancer
  tumor growth inhibition rate, MTT Assay: 51.41 ± 17.48%
Liver cancer
  tumor growth inhibition rate, MTT Assay: 62.54 ± 16.77%
Melanoma
  tumor growth inhibition rate, MTT Assay: 48.77 ± 13.08%
Ovarian cancer
  tumor growth inhibition rate, MTT Assay: 77.90 ± 20.89%
Pancreatic cancer
  tumor growth inhibition rate, MTT Assay: 63.15 ± 20.63%
Prostate cancer
  tumor growth inhibition rate, MTT Assay: 69.32 ± 22.29%
Thyroid cancer
  tumor growth inhibition rate, MTT Assay: 53.71 ± 14.40%
Uterine cancer
  tumor growth inhibition rate, MTT Assay: 66.86 ± 21.63%
sarcoma
  tumor growth inhibition rate, MTT Assay: 56.55 ± 15.16%

## Pro-(D-Pyr)-(D-Cys)-Bip-Arg-Gly-Glu-Gly-Gly-Gly-Gly-Arg-Gly-Asp-Gly-Gly-Gly-Gly-Ile-Val-Arg-Arg-Ala-Asp-Arg-Ala-Ala-Val-Pro [Polypeptide VI]
Staphylococcal fluid
  Inhibitory Effects on Various Pulmonary Infections: 39.78 ± 9.86%
Adenovirus concentrate
  Inhibitory Effects on Various Pulmonary Infections: 52.54 ± 13.88%
Mycoplasma pneumoniae
  Inhibitory Effects on Various Pulmonary Infections: 35.87 ± 12.71%
Chlamydia pneumoniae
  Inhibitory Effects on Various Pulmonary Infections: 42.16 ± 13.36%
[1]
  Inhibitory Effects on Various Pulmonary Infections: 46.55 ± 16.44%
Bladder Cancer
  tumor growth inhibition rate, MTT Assay: 46.43 ± 10.53%
Brain tumor
  tumor growth inhibition rate, MTT Assay: 61.20 ± 13.88%
Breast cancer
  tumor growth inhibition rate, MTT Assay: 81.92 ± 18.58%
Cervical cancer
  tumor growth inhibition rate, MTT Assay: 67.39 ± 21.82%
Colorectal cancer
  tumor growth inhibition rate, MTT Assay: 76.26 ± 17.30%
Esophageal cancer
  tumor growth inhibition rate, MTT Assay: 58.88 ± 13.36%
Gastric cancer
  tumor growth inhibition rate, MTT Assay: 58.09 ± 16.44%
Head and neck cancer
  tumor growth inhibition rate, MTT Assay: 43.46 ± 9.86%
Hemangioma
  tumor growth inhibition rate, MTT Assay: 91.30 ± 20.71%
Kidney cancer
  tumor growth inhibition rate, MTT Assay: 53.64 ± 15.44%
Liver cancer
  tumor growth inhibition rate, MTT Assay: 65.26 ± 14.80%
Melanoma
  tumor growth inhibition rate, MTT Assay: 50.89 ± 11.54%
Ovarian cancer
  tumor growth inhibition rate, MTT Assay: 81.29 ± 18.44%
Pancreatic cancer
  tumor growth inhibition rate, MTT Assay: 65.89 ± 18.21%
Prostate cancer
  tumor growth inhibition rate, MTT Assay: 72.33 ± 19.68%
Thyroid cancer
  tumor growth inhibition rate, MTT Assay: 56.04 ± 12.71%
Uterine cancer
  tumor growth inhibition rate, MTT Assay: 69.77 ± 19.09%
sarcoma
  tumor growth inhibition rate, MTT Assay: 59.01 ± 13.39%

## Arg-Gly-Asp-Gly-Gly-Gly-Gly-Ile-Val-Arg-Arg-Ala-Asp-Arg-Ala-Ala-Val-Pro-Gly-Gly-Gly-Gly-Pro-(D-Pyr)-(D-Cys)-Bip-Arg-Gly-Glu [Polypeptide IV]
Staphylococcal fluid
  Inhibitory Effects on Various Pulmonary Infections: 44.75 ± 13.08%
Adenovirus concentrate
  Inhibitory Effects on Various Pulmonary Infections: 59.10 ± 18.42%
Mycoplasma pneumoniae
  Inhibitory Effects on Various Pulmonary Infections: 40.35 ± 16.87%
Chlamydia pneumoniae
  Inhibitory Effects on Various Pulmonary Infections: 47.43 ± 17.72%
[1]
  Inhibitory Effects on Various Pulmonary Infections: 52.37 ± 21.81%
Bladder Cancer
  tumor growth inhibition rate, MTT Assay: 52.23 ± 13.97%
Brain tumor
  tumor growth inhibition rate, MTT Assay: 68.85 ± 18.42%
Breast cancer
  tumor growth inhibition rate, MTT Assay: 92.16 ± 24.65%
Cervical cancer
  tumor growth inhibition rate, MTT Assay: 64.58 ± 28.95%
Colorectal cancer
  tumor growth inhibition rate, MTT Assay: 85.80 ± 22.95%
Esophageal cancer
  tumor growth inhibition rate, MTT Assay: 66.24 ± 17.72%
Gastric cancer
  tumor growth inhibition rate, MTT Assay: 65.35 ± 21.81%
Head and neck cancer
  tumor growth inhibition rate, MTT Assay: 48.89 ± 13.08%
Hemangioma
  tumor growth inhibition rate, MTT Assay: 87.49 ± 27.47%
Kidney cancer
  tumor growth inhibition rate, MTT Assay: 60.35 ± 20.48%
Liver cancer
  tumor growth inhibition rate, MTT Assay: 73.42 ± 19.64%
Melanoma
  tumor growth inhibition rate, MTT Assay: 57.25 ± 15.31%
Ovarian cancer
  tumor growth inhibition rate, MTT Assay: 91.45 ± 24.46%
Pancreatic cancer
  tumor growth inhibition rate, MTT Assay: 74.13 ± 24.16%
Prostate cancer
  tumor growth inhibition rate, MTT Assay: 81.37 ± 26.10%
Thyroid cancer
  tumor growth inhibition rate, MTT Assay: 63.05 ± 16.87%
Uterine cancer
  tumor growth inhibition rate, MTT Assay: 78.49 ± 25.33%
sarcoma
  tumor growth inhibition rate, MTT Assay: 66.39 ± 17.76%
